Reference: US6166205A, “2-Aryl-4-(1-[4-heteroaryl]piperazin-1-yl)methylimidazoles: dopamine . D.sub4 receptor subtype ligands” (Neurogen Corporation, priority 1999, dated 2000)
Structures can show the parent of a compound that is named as a salt.

How the values were obtained:
D2 receptor = D2 receptor (Chlorocebus aethiops, UniProt P52702); test: dopamine D2 receptor binding assay (3H-YM 09151-2); parameters: species or system African Green monkey; details: 0.5 nM 3H-YM 09151-2; COS cells with recombinantly produced D2 receptors; Table 2: rat striatal homogenates
Method: (§1) Assays For D2 And D4 Receptor Binding Activity
(§2) Pellets of COS cells containing recombinantly produced D2 or D4 receptors from African Green monkey are used for the assays. A sample is homogenized in 100 volumes (w/vol) of 0.05 M Tris HCl buffer at 4° C. and pH 7.4 and then centrifuged at 30,000×g and resuspended and rehomogenized. The sample is again centrifuged at 30,000×g and the final tissue sample is frozen until use. The tissue is resuspended 1:20 (wt/vol) in 0.05 M Tris HCl buffer containing 100 mM NaCl.
(§3) Incubations are carried out at […] and contain 0.4 ml of tissue sample, 0.5 nM ^3 H-YM 09151-2(Nemonapride, cis-5-Chloro-2-methoxy-4-(methylamino)-N-(2-methyl-2-(phenylmethyl)-3-pyrrolidinyl)benzamide) and the compound of interest in a total incubation of 1.0 ml. Nonspecific binding is defined as that binding found in the presence of […] spiperone; without further additions, nonspecific binding is less than 20% of total binding. The binding characteristics of representative compounds of this invention for the D2 and D4 receptor subtypes are shown in Table 2 for rat striatal homogenates.

D4 receptor = test: dopamine D4 receptor binding assay (3H-YM 09151-2); parameters: species or system African Green monkey; details: 0.5 nM 3H-YM 09151-2; COS cells with recombinantly produced D4 receptors; Table 2: rat striatal homogenates
Method: as §1, §2, §3

Sequence of D2 receptor (P52702 whole entry): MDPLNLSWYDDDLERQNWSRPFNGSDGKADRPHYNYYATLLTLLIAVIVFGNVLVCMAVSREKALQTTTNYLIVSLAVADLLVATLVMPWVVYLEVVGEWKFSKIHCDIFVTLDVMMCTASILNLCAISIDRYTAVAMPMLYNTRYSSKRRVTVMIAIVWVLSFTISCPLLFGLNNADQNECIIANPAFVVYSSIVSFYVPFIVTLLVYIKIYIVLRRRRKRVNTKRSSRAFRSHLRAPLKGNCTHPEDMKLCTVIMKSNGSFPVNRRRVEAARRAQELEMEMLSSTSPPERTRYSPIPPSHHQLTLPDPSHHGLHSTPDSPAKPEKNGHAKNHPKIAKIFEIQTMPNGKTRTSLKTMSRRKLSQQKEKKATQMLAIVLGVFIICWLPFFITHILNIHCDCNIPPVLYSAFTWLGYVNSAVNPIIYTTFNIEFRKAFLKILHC

Ki (D2 receptor) | Ki (D4 receptor) | Structure (SMILES)
784 nM | 9 nM | c1ccc(-c2ncc(CN3CCN(c4ccc5ccccc5n4)CC3)[nH]2)cc1 [Compound 2a, 1-[(2-phenylimidazol-5-yl)methyl]-4-(2-quinolyl)piperazine hydrobromide]
2680 nM | – | c1ccc(-c2ncc(CN3CCN(c4ncc5ccccc5n4)CC3)[nH]2)cc1 [Compound 4a, 2-{4-[(2-phenylimidazol-5-yl)methyl]piperazinyl}quinazoline]
> 1000 nM | 14 nM | c1ccc(-c2ncc(CN3CCN(c4ccc5c(n4)CCCC5)CC3)[nH]2)cc1 [Compound 1a, (1-[(2-phenylimidazol-5-yl)methyl]-4-(2-5,6,7,8-tetrahydroquinolyl)piperazine hydrobromide]
978 nM | 17 nM | Fc1ccccc1-c1ncc(CN2CCN(c3ccc4ccccc4n3)CC2)[nH]1 [Compound 3a, 1-{[2-(2-fluorophenyl)imidazol-5-yl]methyl}-4-(2-quinolyl)piperazine oxalate]
2050 nM | – | c1ccc(-c2ncc(CN3CCN(c4cnc5ccccc5n4)CC3)[nH]2)cc1 [Compound 5, 2-{4-[(2-phenylimidazol-5-yl)methyl]piperazinyl}quinoxaline]
